Laboratory results from ChEMBL document CHEMBL3132769, “Fragment growing to retain or alter the selectivity of anchored kinase hinge-binding fragments” (Medchemcomm, 2014).

Columns and labels:
[1] = molecular target: Fibroblast growth factor receptor 3 (Homo sapiens) (UniProt P22607); assay: Inhibition of human FGFR3 catalytic domain expressed in baculovirus assessed as substrate phosphorylation using fluorescence-labelled peptides as substrate at 0.2 uM after 90 mins by microfluidic peptide phosphorylation assay
[2] = molecular target: Calcium/calmodulin-dependent protein kinase type II subunit beta (Homo sapiens) (UniProt Q13554); assay: Inhibition of human CAMK2 beta catalytic domain expressed in baculovirus assessed as substrate phosphorylation using fluorescence-labelled peptides as substrate at 420 uM after 90 mins by microfluidic peptide phosphorylation assay
[3] = molecular target: Serine/threonine-protein kinase Chk2 (Homo sapiens) (UniProt O96017); assay: Inhibition of human full length CHK2 expressed in baculovirus assessed as substrate phosphorylation using fluorescence-labelled peptides as substrate at 2 uM after 90 mins by microfluidic peptide phosphorylation assay
[4] = molecular target: Casein kinase I isoform delta (Homo sapiens) (UniProt P48730); assay: Inhibition of human CK1D catalytic domain expressed in Escherichia coli cell assessed as substrate phosphorylation using fluorescence-labelled peptides as substrate at 0.1 uM after 90 mins by microfluidic peptide phosphorylation assay
[5] = molecular target: Glycogen synthase kinase-3 beta (Homo sapiens) (UniProt P49841); assay: Inhibition of human full length GSK-3 beta expressed in baculovirus assessed as substrate phosphorylation using fluorescence-labelled peptides as substrate at 95 uM after 90 mins by microfluidic peptide phosphorylation assay
[6] = molecular target: Tyrosine-protein kinase Lck (Homo sapiens) (UniProt P06239); assay: Inhibition of human full length LCK expressed in baculovirus assessed as substrate phosphorylation using fluorescence-labelled peptides as substrate at 95 uM after 90 mins by microfluidic peptide phosphorylation assay
[7] = molecular target: Fibroblast growth factor receptor 1 (Homo sapiens) (UniProt P11362); assay: Inhibition of human FGFR1 catalytic domain expressed in baculovirus assessed as substrate phosphorylation using fluorescence-labelled peptides as substrate at 95 uM after 90 mins by microfluidic peptide phosphorylation assay
[8] = tested on: T1, Receptor-type tyrosine-protein kinase FLT3 (Homo sapiens), P36888 [D835Y]; assay: Inhibition of human FLT3 D835Y mutant catalytic domain expressed in baculovirus assessed as substrate phosphorylation using fluorescence-labelled peptides as substrate at […] after 90 mins by microfluidic peptide phosphorylation assay
T1 sequence (whole entry): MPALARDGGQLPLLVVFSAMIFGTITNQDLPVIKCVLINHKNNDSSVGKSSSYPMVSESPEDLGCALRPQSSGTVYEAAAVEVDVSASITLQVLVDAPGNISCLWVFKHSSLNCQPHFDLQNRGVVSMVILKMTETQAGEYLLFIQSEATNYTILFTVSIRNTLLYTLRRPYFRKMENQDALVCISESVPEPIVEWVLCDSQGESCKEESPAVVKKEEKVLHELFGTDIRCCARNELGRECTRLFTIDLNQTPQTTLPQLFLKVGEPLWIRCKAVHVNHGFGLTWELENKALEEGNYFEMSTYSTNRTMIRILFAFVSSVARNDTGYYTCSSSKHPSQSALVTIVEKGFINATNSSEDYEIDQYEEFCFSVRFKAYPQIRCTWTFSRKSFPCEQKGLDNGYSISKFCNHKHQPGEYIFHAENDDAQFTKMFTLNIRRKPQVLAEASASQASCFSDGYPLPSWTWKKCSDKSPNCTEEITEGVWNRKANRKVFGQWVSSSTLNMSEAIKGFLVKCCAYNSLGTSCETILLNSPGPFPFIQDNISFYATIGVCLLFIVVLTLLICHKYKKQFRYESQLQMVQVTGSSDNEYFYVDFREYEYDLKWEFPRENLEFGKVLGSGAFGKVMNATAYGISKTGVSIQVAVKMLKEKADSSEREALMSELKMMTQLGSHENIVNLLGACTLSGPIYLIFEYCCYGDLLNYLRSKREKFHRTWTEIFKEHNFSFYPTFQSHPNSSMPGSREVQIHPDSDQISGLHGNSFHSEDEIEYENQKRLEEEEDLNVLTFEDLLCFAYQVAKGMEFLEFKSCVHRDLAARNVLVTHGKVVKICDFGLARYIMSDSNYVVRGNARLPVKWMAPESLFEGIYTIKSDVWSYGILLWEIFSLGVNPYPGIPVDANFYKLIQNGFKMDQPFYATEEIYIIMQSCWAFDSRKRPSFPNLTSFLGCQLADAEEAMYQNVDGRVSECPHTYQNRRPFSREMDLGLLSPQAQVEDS

[9] = molecular target: Protein kinase C gamma type (Homo sapiens) (UniProt P05129); assay: Inhibition of human truncated PKC gamma expressed in baculovirus assessed as substrate phosphorylation using fluorescence-labelled peptides as substrate at 0.06 uM after 90 mins by microfluidic peptide phosphorylation assay
[10] = molecular target: Tyrosine-protein kinase ABL1 (Homo sapiens) (UniProt P00519); assay: Inhibition of human full-length ABL expressed in baculovirus assessed as substrate phosphorylation using fluorescence-labelled peptides as substrate at 8 uM after 90 mins by microfluidic peptide phosphorylation assay
[11] = molecular target: Calcium/calmodulin-dependent protein kinase type II subunit beta (Homo sapiens) (UniProt Q13554); assay: Inhibition of human CAMK2 beta catalytic domain expressed in baculovirus assessed as substrate phosphorylation using fluorescence-labelled peptides as substrate at 8 uM after 90 mins by microfluidic peptide phosphorylation assay
[12] = molecular target: T2, Calcium/calmodulin-dependent protein kinase type IV (Homo sapiens) (UniProt Q16566); assay: Inhibition of human full length CAMK4 expressed in baculovirus assessed as substrate phosphorylation using fluorescence-labelled peptides as substrate at 70 uM after 90 mins by microfluidic peptide phosphorylation assay
T2 sequence (whole entry): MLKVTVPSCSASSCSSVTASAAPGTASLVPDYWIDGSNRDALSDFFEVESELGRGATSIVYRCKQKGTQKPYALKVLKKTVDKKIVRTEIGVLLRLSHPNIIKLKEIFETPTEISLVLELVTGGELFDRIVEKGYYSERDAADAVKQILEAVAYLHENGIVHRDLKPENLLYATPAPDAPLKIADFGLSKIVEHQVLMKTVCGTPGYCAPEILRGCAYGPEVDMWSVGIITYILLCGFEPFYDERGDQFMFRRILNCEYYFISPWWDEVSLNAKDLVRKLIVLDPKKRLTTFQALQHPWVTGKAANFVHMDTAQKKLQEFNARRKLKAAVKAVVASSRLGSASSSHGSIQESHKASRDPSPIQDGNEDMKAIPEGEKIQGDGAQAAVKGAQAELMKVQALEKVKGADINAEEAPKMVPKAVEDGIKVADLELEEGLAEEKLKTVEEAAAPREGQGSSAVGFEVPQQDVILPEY

Chain of Calcium/calmodulin-dependent protein kinase type II subunit beta (Homo sapiens) (Q13554 whole entry, the tested form may be a part): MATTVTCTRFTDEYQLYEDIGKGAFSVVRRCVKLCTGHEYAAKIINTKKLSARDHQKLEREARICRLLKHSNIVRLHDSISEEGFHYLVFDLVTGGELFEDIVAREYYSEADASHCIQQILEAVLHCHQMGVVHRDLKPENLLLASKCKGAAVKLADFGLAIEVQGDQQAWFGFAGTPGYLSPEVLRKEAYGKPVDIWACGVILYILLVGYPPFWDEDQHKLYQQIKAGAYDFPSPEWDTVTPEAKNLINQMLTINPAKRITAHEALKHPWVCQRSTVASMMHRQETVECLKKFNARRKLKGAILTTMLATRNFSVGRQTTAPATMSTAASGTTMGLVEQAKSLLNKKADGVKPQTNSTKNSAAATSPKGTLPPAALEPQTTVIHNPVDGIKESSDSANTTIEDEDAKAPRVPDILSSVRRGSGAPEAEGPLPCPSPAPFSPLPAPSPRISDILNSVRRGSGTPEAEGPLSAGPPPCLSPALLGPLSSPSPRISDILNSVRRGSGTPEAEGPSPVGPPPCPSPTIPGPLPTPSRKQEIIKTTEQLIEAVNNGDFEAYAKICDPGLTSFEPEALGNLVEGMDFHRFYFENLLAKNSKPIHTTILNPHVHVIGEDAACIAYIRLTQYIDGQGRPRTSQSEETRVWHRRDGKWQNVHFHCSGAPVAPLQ
Chain of Tyrosine-protein kinase ABL1 (Homo sapiens) (P00519 whole entry, the tested form may be a part): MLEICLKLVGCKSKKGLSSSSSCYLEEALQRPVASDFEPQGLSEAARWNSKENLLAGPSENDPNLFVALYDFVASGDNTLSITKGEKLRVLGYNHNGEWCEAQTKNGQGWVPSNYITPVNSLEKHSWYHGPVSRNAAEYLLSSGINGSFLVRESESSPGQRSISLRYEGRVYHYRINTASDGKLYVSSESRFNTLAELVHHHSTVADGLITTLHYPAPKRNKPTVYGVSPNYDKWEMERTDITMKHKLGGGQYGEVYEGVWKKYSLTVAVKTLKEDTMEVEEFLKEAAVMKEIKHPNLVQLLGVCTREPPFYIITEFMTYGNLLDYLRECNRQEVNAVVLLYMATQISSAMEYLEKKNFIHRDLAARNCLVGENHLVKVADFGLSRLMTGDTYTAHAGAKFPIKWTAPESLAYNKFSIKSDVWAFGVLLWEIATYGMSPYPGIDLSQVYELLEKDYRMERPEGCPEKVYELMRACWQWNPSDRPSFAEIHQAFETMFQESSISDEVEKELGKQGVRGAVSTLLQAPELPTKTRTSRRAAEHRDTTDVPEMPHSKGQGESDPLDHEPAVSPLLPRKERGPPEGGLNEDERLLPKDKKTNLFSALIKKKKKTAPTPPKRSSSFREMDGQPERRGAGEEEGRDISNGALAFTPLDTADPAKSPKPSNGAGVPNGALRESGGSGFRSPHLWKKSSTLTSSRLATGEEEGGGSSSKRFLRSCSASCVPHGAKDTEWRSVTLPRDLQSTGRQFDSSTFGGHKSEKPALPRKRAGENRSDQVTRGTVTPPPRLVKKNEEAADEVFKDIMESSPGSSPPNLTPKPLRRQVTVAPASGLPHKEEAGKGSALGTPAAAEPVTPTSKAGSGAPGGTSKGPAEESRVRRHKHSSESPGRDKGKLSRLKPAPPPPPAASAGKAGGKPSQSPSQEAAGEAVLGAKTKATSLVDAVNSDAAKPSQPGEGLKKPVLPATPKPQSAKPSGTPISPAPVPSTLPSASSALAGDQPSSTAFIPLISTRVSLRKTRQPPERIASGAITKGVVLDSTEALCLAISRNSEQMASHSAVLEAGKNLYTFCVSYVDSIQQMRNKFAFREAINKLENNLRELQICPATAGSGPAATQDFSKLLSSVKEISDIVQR
Chain of Casein kinase I isoform delta (Homo sapiens) (P48730 whole entry, looked up, the tested form may be a part, canonical isoform): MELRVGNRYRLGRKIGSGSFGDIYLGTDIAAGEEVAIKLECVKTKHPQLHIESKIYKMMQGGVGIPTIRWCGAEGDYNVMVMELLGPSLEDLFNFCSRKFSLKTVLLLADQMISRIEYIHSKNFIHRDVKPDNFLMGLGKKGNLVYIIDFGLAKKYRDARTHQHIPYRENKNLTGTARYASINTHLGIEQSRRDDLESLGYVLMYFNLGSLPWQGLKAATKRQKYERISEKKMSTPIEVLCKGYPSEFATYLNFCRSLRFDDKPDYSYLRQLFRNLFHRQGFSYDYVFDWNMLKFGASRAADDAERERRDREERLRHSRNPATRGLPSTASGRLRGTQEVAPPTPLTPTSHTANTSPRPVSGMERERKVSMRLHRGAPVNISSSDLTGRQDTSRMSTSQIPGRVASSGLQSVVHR
Chain of Fibroblast growth factor receptor 1 (Homo sapiens) (P11362 22-822 limits assumed): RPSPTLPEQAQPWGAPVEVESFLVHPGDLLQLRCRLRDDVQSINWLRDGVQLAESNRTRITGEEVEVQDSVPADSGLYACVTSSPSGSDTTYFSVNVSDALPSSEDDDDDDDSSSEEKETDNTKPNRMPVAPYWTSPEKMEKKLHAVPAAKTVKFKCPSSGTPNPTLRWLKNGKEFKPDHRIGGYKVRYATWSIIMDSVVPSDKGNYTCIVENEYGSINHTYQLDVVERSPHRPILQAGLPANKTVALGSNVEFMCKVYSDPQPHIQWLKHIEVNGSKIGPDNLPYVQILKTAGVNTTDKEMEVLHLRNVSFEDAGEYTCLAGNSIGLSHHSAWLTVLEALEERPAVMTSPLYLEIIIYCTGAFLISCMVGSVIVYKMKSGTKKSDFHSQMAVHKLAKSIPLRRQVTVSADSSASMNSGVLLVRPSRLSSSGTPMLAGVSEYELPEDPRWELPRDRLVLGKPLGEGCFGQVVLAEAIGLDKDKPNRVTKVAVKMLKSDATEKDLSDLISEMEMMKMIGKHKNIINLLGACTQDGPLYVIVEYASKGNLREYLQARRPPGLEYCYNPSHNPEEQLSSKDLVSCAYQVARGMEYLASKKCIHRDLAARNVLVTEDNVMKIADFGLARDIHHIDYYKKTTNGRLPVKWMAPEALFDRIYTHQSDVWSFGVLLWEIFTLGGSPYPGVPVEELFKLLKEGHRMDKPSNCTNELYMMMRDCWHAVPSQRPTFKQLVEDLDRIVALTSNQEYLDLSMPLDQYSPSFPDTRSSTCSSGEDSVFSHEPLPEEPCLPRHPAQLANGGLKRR
Chain of Serine/threonine-protein kinase Chk2 (Homo sapiens) (O96017 whole entry, the tested form may be a part, canonical isoform): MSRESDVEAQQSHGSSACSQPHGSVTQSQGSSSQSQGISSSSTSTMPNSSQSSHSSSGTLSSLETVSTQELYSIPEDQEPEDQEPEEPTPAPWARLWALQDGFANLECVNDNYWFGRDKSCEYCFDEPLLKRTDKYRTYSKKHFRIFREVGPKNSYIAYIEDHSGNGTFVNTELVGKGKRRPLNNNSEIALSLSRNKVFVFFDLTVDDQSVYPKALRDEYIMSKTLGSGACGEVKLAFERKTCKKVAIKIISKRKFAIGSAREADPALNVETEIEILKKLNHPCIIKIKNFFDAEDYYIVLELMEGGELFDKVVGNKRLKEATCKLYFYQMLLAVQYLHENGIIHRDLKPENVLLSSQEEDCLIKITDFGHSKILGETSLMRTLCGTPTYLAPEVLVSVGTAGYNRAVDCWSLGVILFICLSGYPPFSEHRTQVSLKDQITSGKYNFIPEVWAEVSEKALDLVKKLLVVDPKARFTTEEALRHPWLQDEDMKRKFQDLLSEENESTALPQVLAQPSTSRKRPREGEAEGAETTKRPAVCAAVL
Chain of Fibroblast growth factor receptor 3 (Homo sapiens) (P22607 23-806 limits assumed): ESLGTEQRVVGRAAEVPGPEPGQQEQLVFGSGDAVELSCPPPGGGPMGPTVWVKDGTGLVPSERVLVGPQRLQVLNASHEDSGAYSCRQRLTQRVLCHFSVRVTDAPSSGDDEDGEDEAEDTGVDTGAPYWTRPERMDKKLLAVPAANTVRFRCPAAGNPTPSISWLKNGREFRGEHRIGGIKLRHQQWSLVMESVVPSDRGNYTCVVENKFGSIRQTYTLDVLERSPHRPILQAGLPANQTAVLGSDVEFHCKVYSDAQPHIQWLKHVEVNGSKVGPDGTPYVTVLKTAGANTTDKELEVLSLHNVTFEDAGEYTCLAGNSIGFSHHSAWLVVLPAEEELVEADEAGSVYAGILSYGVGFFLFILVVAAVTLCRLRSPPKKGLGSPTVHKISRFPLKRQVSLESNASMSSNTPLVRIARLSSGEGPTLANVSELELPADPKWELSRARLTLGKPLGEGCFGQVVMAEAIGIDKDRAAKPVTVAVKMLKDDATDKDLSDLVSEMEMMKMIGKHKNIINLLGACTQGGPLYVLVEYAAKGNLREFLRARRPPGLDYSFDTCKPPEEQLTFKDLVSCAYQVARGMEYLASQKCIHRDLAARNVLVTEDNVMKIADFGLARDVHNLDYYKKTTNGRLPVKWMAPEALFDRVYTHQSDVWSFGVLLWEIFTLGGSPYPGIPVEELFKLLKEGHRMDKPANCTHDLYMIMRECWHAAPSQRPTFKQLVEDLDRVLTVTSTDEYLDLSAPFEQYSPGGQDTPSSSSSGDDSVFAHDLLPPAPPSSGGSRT

Clc1ccc(C2(c3ccc(-c4ncnc5[nH]cnc45)cc3)CCNCC2)cc1
inhibition [1]: 0%

c1nc(N2CCOCC2)c2nc[nH]c2n1
inhibition [2]: 20.5%

NC1CCN(c2ncnc3[nH]ccc23)CC1
inhibition [3]: 0%

C[C@H](CN(C)C)Oc1nc(Nc2cc3cccc(Cl)c3cn2)cnc1C#N
inhibition [4]: 9.5%

NCCc1ccc(-c2ncnc3[nH]cnc23)cc1
inhibition [5]: 55%
inhibition [6]: 68.5%
inhibition [7]: 72%

COC(=O)c1cnc(Nc2cnc(C#N)cn2)cc1NCC1CCNCC1
inhibition [8]: 63%

NC1(Cc2ccc(Cl)cc2)CCN(c2ncnc3[nH]ccc23)CC1
inhibition [9]: 3.5%

NCC1CCN(c2ncnc3[nH]ccc23)CC1
inhibition [10]: 57.5%
inhibition [11]: 81%

CNCc1ccc(-c2ncnc3[nH]cnc23)cc1
inhibition [12]: 77.5%
